From US7994196B2, “Indazole compound and pharmaceutical use thereof” (Mitsubishi Tanabe Pharma Corporation, priority 2004, dated 2011)
Like-named read-outs stand apart in the source and are kept apart here.

Test system: MMP-9 production
Assay: Determination of MMP-9 Production Inhibitory Activity (PMA-stimulated HEC3 cells, gelatin zymography)
Type: cell-based
Conditions: Endothelial cell, immortalized human vascular endothelial cells HEC3, PMA 10^-7 M stimulation, test substance at 10, 2, 0.4 and 0.08 μM, read-out: IC50 (MMP-9 production inhibitory rate)
Experimental: Immortalized human vascular endothelial cells HEC3 (supplied by Prof. Iijima of Nagoya University) were subcultured in RPMI1640 medium (Sigma Ltd.) containing 10% fetal calf serum.
The HEC3 cells (5×10^4 cells/well) were plated on a 24-well plate, and cultured in RPMI1640 medium containing 10% fetal calf serum for 24 hr. Each well was washed once with serum-free RPMI1640 medium. Then, RPMI1640 medium (250 μl/well) containing 0.05% fetal calf serum was added to each well, and the cells were further cultured for 2 hr.
The supernatant was removed, and the test substances (Example compounds shown in Table 1) diluted to various concentrations were added and incubated for 1 hr in 0.05% serum-containing RPMI1640 medium and the supernatant was removed again. A medium containing a test substance having the same concentration as in the pre-treatment and PMA (10^−7 M), which is a stimulant, was added at 250 μl/well, and the cells were further cultured for 24 hr.
After completion of the culture, water (50 μl) and 25 μl of SDS buffer (240 mM Tris-HCl (pH 6.8), 8% SDS, 40% glycerol) were added to the culture supernatant (25 μl), and the mixture (10 μl) was electrophoresed on a 7.5% polyacrylamide gel containing 0.1% gelatin.
After the electrophoresis, the gel was washed with Tris-HCl buffer (pH 7.5) containing 0.5% Triton X-100 (Sigma Ltd.) for 1 hr. The gel was immersed in an activation buffer (150 mM NaCl, 50 mM Tris-HCl (pH 7.5), 10 mM CaCl2) at 37° C. for 18 hr to activate MMP-9, and then stained with CBB. The obtained MMP-9 band was converted to numerical values by a densitometer (ATTO. Ltd.).
The MMP-9 production inhibitory rate by the test substance was calculated by the following equation. MMP-9 production inhibitory rate=100−100×{(test substance addition value−non-stimulation value)/(PMA stimulation value−non-stimulation value)}
The MMP-9 production inhibitory rates of the test substance at 10, 2, 0.4 and 0.08 μM were calculated, and IC50 value of the each test substance was determined using an analysis soft (RegExcel).

Structure (SMILES): O=C(Nc1n[nH]c2ccccc12)N1CC=C(c2ccccc2F)CC1 [Ex. 52]
- IC50 (Homo sapiens, 24 h): 320 nM

Structure (SMILES): O=C(Nc1n[nH]c2ccccc12)N1CCc2c(sc3ccccc23)C1 [Ex. 80, 3,4-dihydro[1]benzothieno[2,3-c]pyridine-2-carboxylic acid (1H-indazol-3-yl)amide]
- IC50 (Homo sapiens, 24 h): 250 nM

Structure (SMILES): N#CC1(c2cc(F)cc(F)c2)CCN(C(=O)Nc2n[nH]c3ccccc23)CC1 [Ex. 47]
- IC50 (24 hr): 350 nM

Structure (SMILES): O=C(Nc1n[nH]c2ccccc12)N1CC=C(c2ccccc2)CC1 [Ex. 49]
- IC50 (Homo sapiens, 24 h): 260 nM

Structure (SMILES): O=C(Nc1n[nH]c2ccccc12)N1CCc2c([nH]c3cccc(F)c23)C1 [Ex. 77]
- IC50 (Homo sapiens, 24 h): 50 nM

Structure (SMILES): O=C(Nc1n[nH]c2ccccc12)N1CC=C(c2cccc(F)c2)CC1 [Ex. 55]
- IC50 (Homo sapiens, 24 h): 130 nM

Structure (SMILES): O=C(Nc1n[nH]c2ccccc12)N1CCC(O)(c2ccc(F)c(Cl)c2)CC1 [Ex. 15]
- IC50 (Homo sapiens, 24 h): 450 nM

Structure (SMILES): O=C(Nc1n[nH]c2ccccc12)N1CCc2c([nH]c3cc(C(F)(F)F)ccc23)C1 [Ex. 76]
- IC50 (Homo sapiens, 24 h): 240 nM

Structure (SMILES): O=C(Nc1n[nH]c2ccccc12)N1CC=C(c2cccc(C(F)(F)F)c2)CC1 [Ex. 61]
- IC50 (Homo sapiens, 24 h): 100 nM

Structure (SMILES): O=C(Nc1n[nH]c2ccccc12)N1CCC(O)(c2cc(F)cc(F)c2)CC1 [Ex. 12]
- IC50 (Homo sapiens, 24 h): 610 nM

Structure (SMILES): N#CC1(c2ccc(Br)cc2Cl)CCN(C(=O)Nc2n[nH]c3ccccc23)CC1 [Ex. 48]
- IC50 (24 hr): 770 nM

Structure (SMILES): O=C(Nc1n[nH]c2ccccc12)N1CCc2c([nH]c(=O)c3ccccc23)C1 [Ex. 109, 6-oxo-1,4,5,6-tetrahydrobenzo[c]-1,7-naphthyridine-3-carboxylic acid (1H-indazol-3-yl)amide]
- IC50 (Homo sapiens, 24 h): 140 nM

Structure (SMILES): Cc1c(F)cccc1C1(O)CCN(C(=O)Nc2n[nH]c3ccccc23)CC1 [Ex. 134, 4-(3-fluoro-2-methylphenyl)-4-hydroxy-1-piperidinecarboxylic acid (1H-indazol-3-yl)amide]
- IC50 (Homo sapiens, 24 h): 680 nM

Structure (SMILES): O=C(Nc1n[nH]c2ccccc12)N1CCN(c2cccc(C(F)(F)F)c2)CC1 [Ex. 100, 4-[3-(trifluoromethyl)phenyl]-1-piperazinecarboxylic acid (1H-indazol-3-yl)amide]
- IC50 (Homo sapiens, 24 h): 230 nM

Structure (SMILES): O=C(Nc1n[nH]c2ccccc12)N1CC=C(c2ccc(F)c(Cl)c2)CC1 [Ex. 53]
- IC50 (Homo sapiens, 24 h): 240 nM

Structure (SMILES): CN(C)CC1c2[nH]c3ccccc3c2CCN1C(=O)Nc1n[nH]c2ccccc12 (stereo not drawn) [Ex. 108, 1-[(dimethylamino)methyl]-1,3,4,9-tetrahydro-β-carboline-2-carboxylic acid (1H-indazol-3-yl)amide]
- IC50 (Homo sapiens, 24 h): 670 nM

Structure (SMILES): O=C(Nc1n[nH]c2ccccc12)N1CCC(F)(c2ccc(Cl)c(C(F)(F)F)c2)CC1 [Ex. 123, 4-[4-chloro-3-(trifluoromethyl)phenyl]-4-fluoropiperidine-1-carboxylic acid (1H-indazol-3-yl)amide]
- IC50 (Homo sapiens, 24 h): 730 nM

Structure (SMILES): O=C(Nc1n[nH]c2ccccc12)N1CCC(O)(c2ccc3c(c2)OCO3)CC1 [Ex. 27]
- IC50 (Homo sapiens, 24 h): 940 nM

Structure (SMILES): O=C(Nc1n[nH]c2ccccc12)N1CCn2c(nc3ccccc32)C1 [Ex. 105, 3,4-dihydropyrazino[1,2-a]benzimidazole-2-carboxylic acid (1H-indazol-3-yl)amide]
- IC50 (Homo sapiens, 24 h): 40 nM

Structure (SMILES): O=C(Nc1n[nH]c2ccccc12)N1CCN(c2cc(C(F)(F)F)ccc2Cl)CC1 [Ex. 99, 4-[2-chloro-5-(trifluoromethyl)phenyl]-1-piperazinecarboxylic acid (1H-indazol-3-yl)amide]
- IC50 (Homo sapiens, 24 h): 610 nM

Structure (SMILES): Cc1cc(C2(O)CCN(C(=O)Nc3n[nH]c4ccccc34)CC2)ccc1Cl [Ex. 23]
- IC50 (Homo sapiens, 24 h): 450 nM

Structure (SMILES): O=C(Nc1n[nH]c2ccccc12)N1CCc2c([nH]c3cc(Cl)c(C(F)(F)F)cc23)C1 [Ex. 83, 7-chloro-6-(trifluoromethyl)-1,3,4,9-tetrahydro-β-carboline-2-carboxylic acid (1H-indazol-3-yl)amide]
- IC50 (Homo sapiens, 24 h): 420 nM

Structure (SMILES): O=C(Nc1n[nH]c2ccccc12)N1CC=C(c2cccs2)CC1 [Ex. 60]
- IC50 (Homo sapiens, 24 h): 130 nM

Structure (SMILES): Cc1ccc(F)cc1C1(O)CCN(C(=O)Nc2n[nH]c3ccccc23)CC1 [Ex. 135, 4-(5-fluoro-2-methylphenyl)-4-hydroxy-1-piperidinecarboxylic acid (1H-indazol-3-yl)amide]
- IC50 (Homo sapiens, 24 h): 490 nM

Structure (SMILES): O=C(Nc1n[nH]c2ccccc12)N1CCc2c([nH]c3ccc(Cl)cc23)C1 [Ex. 72]
- IC50 (Homo sapiens, 24 h): 100 nM

Structure (SMILES): Cc1ccc2[nH]c3c(c2c1)CCN(C(=O)Nc1n[nH]c2ccccc12)C3 [Ex. 81, 6-methyl-1,3,4,9-tetrahydro-β-carboline-2-carboxylic acid (1H-indazol-3-yl)amide]
- IC50 (Homo sapiens, 24 h): 100 nM

Structure (SMILES): O=C(Nc1n[nH]c2ccccc12)N1CCC(c2cccc(C(F)(F)F)c2)CC1 [Ex. 112, 4-[3-(trifluoromethyl)phenyl]piperidine-1-carboxylic acid (1H-indazol-3-yl)amide]
- IC50 (Homo sapiens, 24 h): 700 nM

Structure (SMILES): O=C(Nc1n[nH]c2ccccc12)N1CCc2c([nH]c3ccccc23)C1 [Ex. 64]
- IC50 (Homo sapiens, 24 h): 120 nM

Structure (SMILES): O=C(Nc1n[nH]c2ccccc12)N1CCc2c([nH]c3cc(Cl)ccc23)C1 [Ex. 75]
- IC50 (Homo sapiens, 24 h): 110 nM

Structure (SMILES): COc1ccc(C2=CCN(C(=O)Nc3n[nH]c4ccccc34)CC2)cc1OC [Ex. 62]
- IC50 (Homo sapiens, 24 h): 690 nM

Structure (SMILES): O=C(Nc1n[nH]c2ccccc12)N1CCc2c([nH]c3ccc(O)cc23)C1 [Ex. 74]
- IC50 (Homo sapiens, 24 h): 150 nM

Structure (SMILES): Cc1ccc(C2(O)CCN(C(=O)Nc3n[nH]c4ccccc34)CC2)cc1C(F)(F)F [Ex. 10]
- IC50 (Homo sapiens, 24 h): 530 nM

Structure (SMILES): CCc1cccc(C2(O)CCN(C(=O)Nc3n[nH]c4ccccc34)CC2)c1 [Ex. 31]
- IC50 (Homo sapiens, 24 h): 550 nM

Structure (SMILES): Cc1ccsc1C1=CCN(C(=O)Nc2n[nH]c3ccccc23)CC1 [Ex. 59]
- IC50 (Homo sapiens, 24 h): 210 nM

Structure (SMILES): O=C(Nc1n[nH]c2ccccc12)N1CCc2c(c(=O)[nH]c3ccccc23)C1 [Ex. 104, 5-oxo-1,4,5,6-tetrahydrobenzo[c]-2,7-naphthyridine-3-carboxylic acid (1H-indazol-3-yl)amide]
- IC50 (Homo sapiens, 24 h): 10 nM

Structure (SMILES): N#CC1(c2cccc(C(F)(F)F)c2)CCN(C(=O)Nc2n[nH]c3ccccc23)CC1 [Ex. 42]
- IC50 (24 hr): 220 nM

Structure (SMILES): Cc1cccc(C2(O)CCN(C(=O)Nc3n[nH]c4ccccc34)CC2)c1C [Ex. 144, 4-(2,3-dimethylphenyl)-4-hydroxy-1-piperidinecarboxylic acid (1H-indazol-3-yl)amide]
- IC50 (Homo sapiens, 24 h): 650 nM

Structure (SMILES): Cc1cccc2c3c([nH]c12)CN(C(=O)Nc1n[nH]c2ccccc12)CC3 [Ex. 79, 8-methyl-1,3,4,9-tetrahydro-β-carboline-2-carboxylic acid (1H-indazol-3-yl)amide]
- IC50 (Homo sapiens, 24 h): 160 nM

Structure (SMILES): O=C(Nc1n[nH]c2ccccc12)N1CCN(c2ccc(F)c(C(F)(F)F)c2)CC1 [Ex. 94, 4-[4-fluoro-3-(trifluoromethyl)phenyl]-1-piperazinecarboxylic acid (1H-indazol-3-yl)amide]
- IC50 (Homo sapiens, 24 h): 340 nM

Structure (SMILES): O=C(Nc1n[nH]c2ccccc12)N1CCc2c([nH]c3ccc(F)cc23)C1 [Ex. 70]
- IC50 (Homo sapiens, 24 h): 60 nM

Structure (SMILES): O=C(Nc1n[nH]c2ccccc12)N1CCC(O)(c2cc(Cl)ccc2Cl)CC1 [Ex. 33]
- IC50 (Homo sapiens, 24 h): 310 nM

Structure (SMILES): O=C(Nc1n[nH]c2ccccc12)N1CCN(c2ccc(Cl)c(Cl)c2)CC1 [Ex. 98, 4-(3,4-dichlorophenyl)-1-piperazinecarboxylic acid (1H-indazol-3-yl)amide]
- IC50 (Homo sapiens, 24 h): 220 nM

Structure (SMILES): Cc1cc(C)cc(C2(O)CCN(C(=O)Nc3n[nH]c4ccccc34)CC2)c1 [Ex. 143, 4-(3,5-dimethylphenyl)-4-hydroxy-1-piperidinecarboxylic acid (1H-indazol-3-yl)amide]
- IC50 (Homo sapiens, 24 h): 280 nM

Structure (SMILES): CN(C)c1cccc(C2=CCN(C(=O)Nc3n[nH]c4ccccc34)CC2)c1 [Ex. 63]
- IC50 (Homo sapiens, 24 h): 360 nM

Structure (SMILES): O=C(Nc1n[nH]c2ccccc12)N1CCC(O)(c2ccc(Cl)c(Cl)c2)CC1 [Ex. 21]
- IC50 (Homo sapiens, 24 h): 380 nM

Structure (SMILES): Cn1c2c(c3ccccc31)CCN(C(=O)Nc1n[nH]c3ccccc13)C2 [Ex. 65]
- IC50 (Homo sapiens, 24 h): 160 nM

Structure (SMILES): Cc1cc(C2(O)CCN(C(=O)Nc3n[nH]c4ccccc34)CC2)ccc1F [Ex. 136, 4-(4-fluoro-3-methylphenyl)-4-hydroxy-1-piperidinecarboxylic acid (1H-indazol-3-yl)amide]
- IC50 (Homo sapiens, 24 h): 410 nM

Structure (SMILES): Cc1ccc(C)c(C2(O)CCN(C(=O)Nc3n[nH]c4ccccc34)CC2)c1 [Ex. 139, 4-(2,5-dimethylphenyl)-4-hydroxy-1-piperidinecarboxylic acid (1H-indazol-3-yl)amide]
- IC50 (Homo sapiens, 24 h): 450 nM

Structure (SMILES): N#CC1(c2ccc(Br)s2)CCN(C(=O)Nc2n[nH]c3ccccc23)CC1 [Ex. 46]
- IC50 (Homo sapiens, 24 h): 550 nM

Structure (SMILES): CC1CN(C(=O)Nc2n[nH]c3ccccc23)CCN1c1ccc(Cl)c(C(F)(F)F)c1 (stereo not drawn) [Ex. 117]
- IC50 (Homo sapiens, 24 h): 930 nM

Structure (SMILES): Cc1c(C(F)(F)F)cccc1C1(O)CCN(C(=O)Nc2n[nH]c3ccccc23)CC1 [Ex. 140, 4-hydroxy-4-[2-methyl-3-(trifluoromethyl)phenyl]-1-piperidinecarboxylic acid (1H-indazol-3-yl)amide]
- IC50 (Homo sapiens, 24 h): 620 nM
